Reference: patent publication US20090028871A1, “NOVEL USE OF LIGANDS SPECIFIC TO FEX-2 POLYPEPTIDE” (KYUNGPOOK NATIONAL UNIVERSITY INDUSTRY-ACADEMIC COOPERATION …, priority 2004, published 2009)

Legend:
[1] = test system: L/FEX-2 cells; experiment: Inhibition of binding and phagocytosis of aged red blood cells by L/FEX-2 cells; assay type: cell-based, mouse; conditions: L/FEX-2 cells pre-cultured with 100 μM, 37° C., 30 minutes; relative to control group taken as 100%
Protocol: Whether or not aged red blood cells are bound and phagocytosed by the L/FEX-2 cells prepared in Example <1-2> and L/Mock cells as a control group was examined. For this purpose, normal red blood cells obtained from normal adult volunteers were first diluted with PBS to a hematocrit concentration of 20% and cultured at 37° C. for 4 days, thus preparing aged red blood cells. Then, each of L/FEX-2 cells, L/Mock cells and normal L cells was cultured to a confluent 6-well plate comprising Dulbecco's modified Eagle's medium (DMEM). To the culture media, aged red blood cells and normal red blood cells were added to a hematocrit concentration of 1% and cultured at 37° C. for one hour. Then, the cells were washed five times with PBS, and observed for the binding of the aged red blood cells and normal red blood cells using an optical microscope. The number of red blood cells bound to 100 randomly selected L/FEX-2 cells was counted and averaged. To analyze phagocytosis, the cells were washed with PBS and treated with water for 10 seconds to completely dissolve undigested cells. Then, the L/FEX-2 cells were stained using the Diff quick staining kit (IMEM Ins., San Marcos, Calif., USA), and five sites from the stained cells were randomly selected and counted for the number of cells which have phagocytosed red blood cells phagocytosed. Binding and phagocytosis indexes (%) were expressed as the percentages of cells having red blood cells bound and phagocytosed thereby, relative to the entire L/FEX-2 cells.
To the L/FEX-2 cells prepared in Example <1-2>, 100 μg/ml of the human FEX-2 monoclonal antibody (5G3) was added and the mixture was pre-cultured at 37° C. for one hour. As a control group, mouse immunoglobulin (IgG1) in place of the FEX-2 monoclonal antibody was used. […] After completion of the culture, the binding and phagocytosis of the aged red blood cells were analyzed in the same manner as in Example <4-1>. In this regard, the binding and phagocytosis of the aged red blood cells were expressed as inhibition percentage relative to the case of L/FEX-2 cells, which have not been pre-cultured with the antibody.
Whether the binding and phagocytosis of red blood cells by the L/FEX-2 cells are inhibited, it was examined by pre-culturing the L/FEX-2 cells with each of the PS liposome, PI liposome, PG liposome, PE liposome, PA liposome and PC liposome prepared in Example <5-3> and then additionally culturing the pre-cultured cells with aged red blood cells. […] After completion of the culture, the binding and phagocytosis of the aged red blood cells were analyzed in the same manner as in. […] The binding and phagocytosis of aged red blood cells were expressed as values relative to the control group taken as 100%. […]

[2] = test system: premyelomonocytic leukemic U937 cells; experiment: Induction of apoptosis in U937 cells (annexin V flow cytometry); assay type: cell-based, human; conditions: 100 ng/ml, 4 hours
Protocol: For this purpose, the apoptosis of human leukemic Jurkat T cells (Korean cell line bank) and premyelomonocytic leukemic U937 cells (Korean cell line bank) was induced. The cells were cultured in an RPMI 1640 medium comprising 10% fetal bovine serum. The induction of apoptosis of the Jurkat T cells was performed according to a known method by inoculating the Jurkat T cells in a medium comprising 100 ng/ml of an anti-Fas antibody (CH-11) and culturing the inoculated cells for 6 hours (Oka, K. et al., Proc Natl Acad Sci USA, 95:9535-40, 1998). Also, the induction of apoptosis of the U937 cells was performed according to a known method by inoculating the U937 cells in a medium comprising 100 ng/ml of ectoposide and culturing the inoculated cells for 4 hours (Bave, U., et. al., J Immunol 165:3519-26, 2000). The degree of apoptosis of the cells was determined by measuring the amount of phosphatidylserine expressed on the cell surface, by flow cytometry in the same manner as in Example <5-1> using the annexin V apoptosis detection kit (Santacruz) according to the manufacturer's instruction.

Compound	binding of aged red blood cells [1]	phagocytosis of aged red blood cells [1]	apoptosis of the cells (phosphatidylserine on cell surface, annexin V) [2]
N[C@H](COP(=O)(O)O)C(=O)O [PDS, phospho-D-serine]	no significant effect	no significant effect	–
N[C@@H](COP(=O)(O)O)C(=O)O [PLS, phospho-L-serine]	significant inhibition	significant inhibition	–
COc1cc([C@@H]2c3cc4c(cc3[C@@H](O[C@@H]3O[C@@H]5CO[C@@H](C)O[C@H]5[C@H](O)[C@H]3O)[C@H]3COC(=O)[C@H]23)OCO4)cc(OC)c1O [ectoposide]	–	–	induced
